Results from BindingDB's records for doi:10.1021/jm010087e (The University of Western Australia, 2001).

experiment: Inhibitory activity against clostridium histolyticum collagenase

With `Cc1ccc(S(=O)(=O)N(Cc2ccccc2[N+](=O)[O-])C(C)C(=O)O)cc1` (configuration not stated) [2-[(2-Nitro-benzyl)-(toluene-4-sulfonyl)-amino]-propionic acid] as the compound, how does the Ki read?
Its Ki is 17 µM.

With `CC(C(=O)NO)N(Cc1ccccc1[N+](=O)[O-])C(=O)Nc1ccc(F)cc1` (configuration not stated) [2-[3-(4-Fluoro-phenyl)-1-(2-nitro-benzyl)-ureido]-N-hydroxy-propionamide] as the compound, how does the Ki read?
The Ki was 0.015 µM.

Which Ki does the source give for `CC(C(=O)NO)N(Cc1ccccc1[N+](=O)[O-])S(=O)(=O)c1ccc([N+](=O)[O-])c(Cl)c1` (configuration not stated) [2-[(3-Chloro-4-nitro-benzenesulfonyl)-(2-nitro-benzyl)-amino]-N-hydroxy-propionamide] here?
Its Ki is 0.009 µM.

Which Ki does the source give for `COc1ccc(S(=O)(=O)N(Cc2ccccc2[N+](=O)[O-])C(C)C(=O)NO)cc1` (configuration not stated) [2-(N-(2-nitrobenzyl)-4-methoxyphenylsulfonamido)-N-hydroxypropanamide] here?
Its Ki is 0.019 µM.

Which Ki does the source give for `CC(C(=O)O)N(Cc1ccccc1[N+](=O)[O-])S(=O)(=O)c1cccc(C(=O)O)c1` (configuration not stated) [3-[(1-Carboxy-ethyl)-(2-nitro-benzyl)-sulfamoyl]-benzoic acid] here?
Its Ki is 2.1 µM.

Which Ki does the source give for `CC(C(=O)O)N(Cc1ccccc1[N+](=O)[O-])S(=O)(=O)c1cccs1` (configuration not stated) [2-[(2-Nitro-benzyl)-(thiophene-2-sulfonyl)-amino]-propionic acid] here?
The Ki was 2 µM.

With `CC(=O)c1ccc(S(=O)(=O)N(Cc2ccccc2[N+](=O)[O-])C(C)C(=O)O)cc1` (configuration not stated) [2-[(4-Acetyl-benzenesulfonyl)-(2-nitro-benzyl)-amino]-propionic acid] as the compound, how does the Ki read?
The Ki was 2 µM.

With `CC(C(=O)O)N(Cc1ccccc1[N+](=O)[O-])S(=O)(=O)c1ccc(I)cc1` (configuration not stated) [2-[(4-Iodo-benzenesulfonyl)-(2-nitro-benzyl)-amino]-propionic acid] as the compound, how does the Ki read?
The Ki was 11 µM.

For `CC(C(=O)NO)N(Cc1ccccc1[N+](=O)[O-])C(=O)Nc1cccc2ccccc12` (configuration not stated) [N-Hydroxy-2-[3-naphthalen-1-yl-1-(2-nitro-benzyl)-ureido]-propionamide], which Ki is on record?
The Ki was 0.01 µM.

For `COc1ccc(S(=O)(=O)N(Cc2ccccc2[N+](=O)[O-])C(C)C(=O)NO)cc1NC(=O)OC(C)(C)C` (configuration not stated) [{5-[(1-Hydroxycarbamoyl-ethyl)-(2-nitro-benzyl)-sulfamoyl]-2-methoxy-phenyl}-carbamic acid tert-butyl ester], which Ki is on record?
The Ki was 0.009 µM.

With `CC(C(=O)O)N(Cc1ccccc1[N+](=O)[O-])S(=O)(=O)c1c(F)c(F)c(F)c(F)c1F` (configuration not stated) [2-[(2-Nitro-benzyl)-pentafluorobenzenesulfonyl-amino]-propionic acid] as the compound, how does the Ki read?
The Ki was 0.3 µM.

With `CC(C(=O)O)N(Cc1ccccc1[N+](=O)[O-])S(=O)(=O)c1cccc2ccccc12` (configuration not stated) [2-[(Naphthalene-1-sulfonyl)-(2-nitro-benzyl)-amino]-propionic acid] as the compound, how does the Ki read?
The Ki was 1.6 µM.

For `CC(C(=O)NO)N(Cc1ccccc1[N+](=O)[O-])C(=O)NS(=O)(=O)c1ccccc1` (configuration not stated) [N-hydroxy-2-((2-nitrobenzyl){[(phenylsulfonyl)amino]carbonyl}amino)propanamide], which Ki is on record?
Its Ki is 0.012 µM.

Which Ki does the source give for `CC(C(=O)O)N(Cc1ccccc1[N+](=O)[O-])Sc1ccc([N+](=O)[O-])cc1[N+](=O)[O-]` (configuration not stated) [2-[(2,4-Dinitro-phenylsulfanyl)-(2-nitro-benzyl)-amino]-propionic acid] here?
Its Ki is 5.2 µM.

For `CC(C(=O)O)N(Cc1ccccc1[N+](=O)[O-])Sc1ccc([N+](=O)[O-])cc1` (configuration not stated) [2-[(2-Nitro-benzyl)-(4-nitro-phenylsulfanyl)-amino]-propionic acid], which Ki is on record?
Its Ki is 6 µM.

For `CC(C(=O)O)N(Cc1ccccc1[N+](=O)[O-])S(=O)(=O)c1ccc(C(=O)O)cc1` (configuration not stated) [4-[(1-Carboxy-ethyl)-(2-nitro-benzyl)-sulfamoyl]-benzoic acid], which Ki is on record?
Its Ki is 1.9 µM.

With `CC(C(=O)NO)N(Cc1ccccc1[N+](=O)[O-])S(=O)(=O)C(F)(F)C(F)(F)C(F)(F)C(F)(F)C(F)(F)C(F)(F)C(F)(F)C(F)(F)F` (configuration not stated) [2-[(Heptadecafluorooctane-1-sulfonyl)-(2-nitro-benzyl)-amino]-N-hydroxy-propionamide] as the compound, how does the Ki read?
Its Ki is 0.008 µM.

Which Ki does the source give for `CC(C(=O)O)N(Cc1ccccc1[N+](=O)[O-])C(=S)NC(=O)c1ccccc1` (configuration not stated) [2-[3-Benzoyl-1-(2-nitro-benzyl)-thioureido]-propionic acid] here?
The Ki was 0.7 µM.

Which Ki does the source give for `CC(C(=O)NO)N(Cc1ccccc1[N+](=O)[O-])S(=O)(=O)c1ccc(Br)cc1` (configuration not stated) [2-[(4-Bromo-benzenesulfonyl)-(2-nitro-benzyl)-amino]-N-hydroxy-propionamide] here?
Its Ki is 0.033 µM.

With `CC(C(=O)NO)N(Cc1ccccc1[N+](=O)[O-])C(=O)Nc1ccc(Cl)c(Cl)c1` (configuration not stated) [2-[3-(3,4-Dichloro-phenyl)-1-(2-nitro-benzyl)-ureido]-N-hydroxy-propionamide] as the compound, how does the Ki read?
The Ki was 0.014 µM.

For `CC(C(=O)O)N(Cc1ccccc1[N+](=O)[O-])C(=O)NS(=O)(=O)c1ccccc1` (configuration not stated) [2-((2-nitrobenzyl){[(phenylsulfonyl)amino]carbonyl}amino)propanoic acid], which Ki is on record?
Its Ki is 3.6 µM.

For `CC(C(=O)O)N(Cc1ccccc1[N+](=O)[O-])S(=O)(=O)Cc1ccccc1` (configuration not stated) [2-[(2-Nitro-benzyl)-phenylmethanesulfonyl-amino]-propionic acid], which Ki is on record?
The Ki was 18 µM.
